Source: patent publication US12655116B2, “Substituted isophthalic acid diamides” (Bayer Aktiengesellschaft, priority 2020, dated 2026)

Experiments:
AMARE [1] = assay: Post-emergence herbicidal action against AMARE; type: in vivo, Amaranthus retroflexus; conditions: 20 g/ha, visual assessment about 3 weeks after treatment, 100% = plants have died, 0% = like control plants; for pest or weed control at 20 g/ha: Amaranthus retroflexus, 504 h
How it was run: (§1)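 Percent herbicidal action is rated by eye about 3 weeks after treatment against untreated controls, where 100% means dead plants and 0% means like controls. Plants in sandy loam are sprayed on green parts at the one-leaf stage with aqueous WP or EC preparations at 600 to 800 l/ha plus 0.2% wetting agent.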

ABUTH [2] = assay: Post-emergence herbicidal action against ABUTH; type: in vivo, Abutilon theophrasti; conditions: visual assessment about 3 weeks after treatment vs untreated controls
How it was run: as §1

VERPE [3] = assay: Pre-emergence herbicidal action against VERPE; type: in vivo, Veronica persica; conditions: dosage 80 g/ha
How it was run: (§2)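 Seeds sown in sandy loam, soil-covered; compound sprayed on soil surface pre-emergence. Application: WP/EC, 600–800 l/ha, 0.2% wetting agent. Readout: visual % damage at 3 weeks.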

MATIN [4] = assay: Pre-emergence herbicidal action against MATIN; type: in vivo, Matricaria inodora
How it was run: as §2

ABUTH [5] = assay: Pre-emergence herbicidal action against ABUTH; type: in vivo, Abutilon theophrasti
How it was run: as §2

ECHCG [6] = assay: Post-emergence herbicidal action against ECHCG; type: in vivo, Echinochloa crus-galli
How it was run: as §1

LOLRI = assay: Pre-emergence herbicidal action against LOLRI; type: in vivo, Lolium rigidum; conditions: 80 g/ha; for pest or weed control at 80 g/ha: Lolium rigidum, 504 h
From the text: Seeds of monocotyledonous and dicotyledonous weed plants and crop plants are laid out in sandy loam soil in wood-fiber pots and covered with soil. The compounds of the invention, formulated in the form of wettable powders (WP) or as emulsion concentrates (EC), are then applied to the surface of the covering soil in the form of an aqueous suspension or emulsion at a water application rate equivalent to 600 to 800 l/ha, with addition of 0.2% wetting agent. After the treatment, the pots are placed in a greenhouse and kept under good growth conditions for the trial plants. The damage to the test plants is scored visually after a test period of 3 weeks by comparison with untreated controls (herbicidal activity in percent (%): 100% activity=the plants have died, 0% activity=like control plants). […] The tables below illustrate, in an illustrative manner, the post-emergence herbicidal action of the compounds of the invention, the herbicidal activity being stated in percent.

ALOMY [7] = assay: Pre-emergence herbicidal action against ALOMY; type: in vivo, Alopecurus myosuroides
How it was run: as §2

VERPE [8] = assay: Post-emergence herbicidal action against VERPE; type: in vivo, Veronica persica; conditions: 20 g/ha; for pest or weed control at 20 g/ha: Veronica persica, 504 h
How it was run: as §1

ECHCG [9] = assay: Pre-emergence herbicidal action against ECHCG; type: in vivo, Echinochloa crus-galli; conditions: 80 g/ha; for pest or weed control at 80 g/ha: Echinochloa crus-galli, 504 h
How it was run: as §2

VIOTR [10] = assay: Pre-emergence herbicidal action against VIOTR; type: in vivo, Viola tricolor
How it was run: as §2

AMARE [11] = assay: Pre-emergence herbicidal action against AMARE; type: in vivo, Amaranthus retroflexus; conditions: for pest or weed control at 20 g/ha / pest or weed control at 80 g/ha: Amaranthus retroflexus, 504 h
How it was run: as §2

PHBPU = assay: Post-emergence herbicidal action against PHBPU; type: in vivo, Pharbitis purpurea
How it was run: as §1

ALOMY [12] = assay: Post-emergence herbicidal action against ALOMY; type: in vivo, Alopecurus myosuroides; conditions: visual assessment about 3 weeks after treatment vs untreated controls; for pest or weed control at 5 g/ha / pest or weed control at 20 g/ha: Alopecurus myosuroides, 504 h; for pest or weed control at 5 g/ha: dosage 5 g/ha
How it was run: as §1

SETVI [13] = assay: Post-emergence herbicidal action against SETVI; type: in vivo, Setaria viridis
How it was run: as §1

AVEFA = assay: Pre-emergence herbicidal action against AVEFA; type: in vivo, Avena fatua; conditions: Avena fatua, 504 h, pre-emergence; for pest or weed control at 20 g/ha: scored visually after 3 weeks, 100% = plants have died, 0% = like control plants
How it was run: as §2

SETVI [14] = assay: Pre-emergence herbicidal action against SETVI; type: in vivo, Setaria viridis
How it was run: as §2

VIOTR [15] = assay: Post-emergence herbicidal action against VIOTR; type: in vivo, Viola tricolor; conditions: Viola tricolor, 504 h
How it was run: as §1

MATIN [16] = assay: Post-emergence herbicidal action against MATIN; type: in vivo, Matricaria inodora; conditions: Tripleurospermum inodorum, 504 h, dosage 20 g/ha
How it was run: as §1

DIGSA [17] = assay: Post-emergence herbicidal action against DIGSA; type: in vivo, Digitaria sanguinalis
How it was run: as §1

DIGSA [18] = assay: Pre-emergence herbicidal action against DIGSA; type: in vivo, Digitaria sanguinalis
How it was run: as §2

[19] = Abutilon theophrasti, 504 h, dosage 20 g/ha
[20] = Tripleurospermum inodorum, 504 h, dosage 80 g/ha
[21] = Abutilon theophrasti, 504 h, 80 g/ha, scored visually after 3 weeks vs untreated controls (100% = plants have died, 0% = like control plants)
[22] = Echinochloa crus-galli, 504 h, dosage 20 g/ha
[23] = Alopecurus myosuroides, 504 h, 80 g/ha, pre-emergence, scored visually after 3 weeks vs untreated controls (100% = plants have died, 0% = like control plants)
[24] = Viola tricolor, 504 h, dosage 80 g/ha
[25] = 20 g/ha, scored visually after 3 weeks vs untreated controls, 100% = plants have died, 0% = like control plants
[26] = 80 g/ha, scored visually after 3 weeks vs untreated controls, 100% = plants have died, 0% = like control plants
[27] = Ipomoea purpurea, 504 h, dosage 20 g/ha
[28] = Setaria viridis, 504 h, dosage 20 g/ha
[29] = Setaria viridis, 504 h, dosage 80 g/ha
[30] = 80 g/ha, scored visually after 3 weeks vs untreated controls (100% = plants have died, 0% = like control plants)

CCNC(=O)c1c(Br)ccc(C(=O)Nc2nnnn2C)c1Br [Example 1-343]
100%: pest or weed control at 20 g/ha (AMARE [1]) | pest or weed control at 80 g/ha (MATIN [4]; [20]) | pest or weed control at 80 g/ha (ABUTH [5]; [21]) | pest or weed control at 80 g/ha (ALOMY [7]; [23]) | pest or weed control at 80 g/ha (VIOTR [10]; [24]) | pest or weed control at 20 g/ha (AMARE [11]; [25]) | pest or weed control at 80 g/ha (AMARE [11]; [26]) | pest or weed control at 20 g/ha (ALOMY [12]; dosage 20 g/ha) | pest or weed control at 20 g/ha (SETVI [13]; [28]) | pest or weed control at 80 g/ha (SETVI [14]; [29])
90%: pest or weed control at 5 g/ha (ABUTH [2]; Abutilon theophrasti, 504 h, dosage 5 g/ha) | pest or weed control at 20 g/ha (ABUTH [2]; [19]) | pest or weed control at 20 g/ha (ECHCG [6]; [22]) | pest or weed control at 80 g/ha (ECHCG [9]) | pest or weed control at 5 g/ha (ALOMY [12])
80%: pest or weed control at 80 g/ha (VERPE [3]; Veronica persica, 504 h) | pest or weed control at 5 g/ha (ECHCG [6]; Echinochloa crus-galli, 504 h, dosage 5 g/ha) | pest or weed control at 80 g/ha (LOLRI) | pest or weed control at 20 g/ha (VERPE [8]) | pest or weed control at 20 g/ha (PHBPU; [27]) | pest or weed control at 80 g/ha (AVEFA) | pest or weed control at 20 g/ha (AVEFA) | pest or weed control at 20 g/ha (VIOTR [15])

CNC(=O)c1c(I)ccc(C(=O)Nc2nnnn2C)c1Cl [Example 1-195]
90%: pest or weed control at 20 g/ha (MATIN [4]; Tripleurospermum inodorum, 504 h, dosage 20 g/ha) | pest or weed control at 20 g/ha (ABUTH [5]; Abutilon theophrasti, 504 h, dosage 20 g/ha, scored visually after 3 weeks vs untreated controls, 100% = plants have died, 0% = like control plants, read-out: Pre-emergence action against ABUTH (herbicidal activity in percent)) | pest or weed control at 80 g/ha (ALOMY [7]; [23]) | pest or weed control at 20 g/ha (ALOMY [7]; Alopecurus myosuroides, pre-emergence, 504 h, 20 g/ha, scored visually after 3 weeks, 100% = plants have died, 0% = like control plants) | pest or weed control at 20 g/ha (AMARE [11]; [25]) | pest or weed control at 5 g/ha (ALOMY [12]) | pest or weed control at 80 g/ha (AVEFA) | pest or weed control at 20 g/ha (SETVI [14]; [28]) | pest or weed control at 5 g/ha (VIOTR [15]; 5 g/ha)
100%: pest or weed control at 20 g/ha (AMARE [1]) | pest or weed control at 80 g/ha (MATIN [4]; [20]) | pest or weed control at 80 g/ha (ABUTH [5]; [21]) | pest or weed control at 80 g/ha (ECHCG [9]) | pest or weed control at 20 g/ha (VIOTR [10]; Viola tricolor, 504 h, dosage 20 g/ha) | pest or weed control at 80 g/ha (VIOTR [10]; [24]) | pest or weed control at 80 g/ha (AMARE [11]; [26]) | pest or weed control at 20 g/ha (ALOMY [12]; dosage 20 g/ha) | pest or weed control at 5 g/ha (SETVI [13]; Setaria viridis, 504 h, dosage 5 g/ha) | pest or weed control at 20 g/ha (SETVI [13]; [28]) | pest or weed control at 80 g/ha (SETVI [14]; [29]) | pest or weed control at 20 g/ha (VIOTR [15])
80%: pest or weed control at 20 g/ha (ABUTH [2]; [19]) | pest or weed control at 20 g/ha (ECHCG [6]; [22]) | pest or weed control at 80 g/ha (LOLRI) | pest or weed control at 20 g/ha (VERPE [8]) | pest or weed control at 5 g/ha (PHBPU; Ipomoea purpurea, 504 h, dosage 5 g/ha) | pest or weed control at 20 g/ha (PHBPU; [27]) | pest or weed control at 20 g/ha (MATIN [16]) | pest or weed control at 20 g/ha (AVEFA)

COCCNC(=O)c1c(C(F)(F)F)ccc(C(=O)Nc2nnnn2C)c1C [Example 1-34]
100%: Post-emergence action at 20 g/ha against AMARE in % (AMARE [1]) | Post-emergence action against ABUTH in % (ABUTH [2]; dosage 20 g/ha) | Pre-emergence action against VERPE in % (VERPE [3]) | Pre-emergence action against ABUTH (herbicidal activity) (ABUTH [5]; [30]) | Pre-emergence action against ALOMY (herbicidal activity) (ALOMY [7]; 80 g/ha, pre-emergence, scored visually after 3 weeks vs untreated controls (100% = plants have died, 0% = like control plants)) | Pre-emergence action against DIGSA in % (DIGSA [18]; dosage 20 g/ha) | Pre-emergence action against DIGSA in % (DIGSA [18]; dosage 80 g/ha) | Pre-emergence action against VIOTR in % (VIOTR [10]; dosage 20 g/ha) | Pre-emergence action against VIOTR in % (VIOTR [10]; dosage 80 g/ha) | Pre-emergence action against AMARE in % (AMARE [11]; [25]) | Pre-emergence action against AMARE in % (AMARE [11]; [30]) | Pre-emergence action against SETVI in % (SETVI [14]; dosage 80 g/ha)
80%: Pre-emergence action against ABUTH (herbicidal activity in percent) (ABUTH [5]; dosage 20 g/ha, scored visually after 3 weeks vs untreated controls, 100% = plants have died, 0% = like control plants) | Post-emergence action against DIGSA in % (DIGSA [17]; 5 g/ha) | Pre-emergence action against LOLRI in % (LOLRI) | Pre-emergence action against ALOMY (ALOMY [7]; 20 g/ha, scored visually after 3 weeks, 100% = plants have died, 0% = like control plants) | Post-emergence action against SETVI in % (SETVI [13]; dosage 5 g/ha)
90%: Post-emergence action against ABUTH in % (ABUTH [2]; dosage 5 g/ha) | Pre-emergence action against MATIN in % (MATIN [4]; dosage 80 g/ha) | Post-emergence action against ECHCG in % (ECHCG [6]; dosage 5 g/ha) | Post-emergence action against ECHCG in % (ECHCG [6]; dosage 20 g/ha) | Post-emergence action against DIGSA (DIGSA [17]; 20 g/ha) | Post-emergence action against VERPE in % (VERPE [8]) | Pre-emergence action against ECHCG in % (ECHCG [9]) | Post-emergence action against PHBPU in % (PHBPU; dosage 5 g/ha) | Post-emergence action against PHBPU in % (PHBPU; dosage 20 g/ha) | Post-emergence action against ALOMY in % (ALOMY [12]; dosage 20 g/ha) | Post-emergence action against SETVI in % (SETVI [13]; dosage 20 g/ha)
